Read-outs that look alike come from different tables or passages of the source.
Tests used:
[1] = test system: Serratia marcescens expressing IMP-1 (CL5741); type: cell-based; conditions: IMP-1 strain CL5741, with imipenem 1 μg/ml, 95% inhibition of growth
Procedure, shortened: (§1)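 Clinical strains grown overnight on blood agar at 35°C, colonies suspended in saline, diluted 1:100 into 1.1×CAMHB. Test compound titrated with imipenem at 1 μg/ml; incubated 22–24 h at 35°C, growth read by absorbance.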

[2] = test system: Klebsiella pneumoniae expressing VIM-1 (IHMA599644); type: cell-based; conditions: VIM-1 strain IHMA599644, with imipenem 1 μg/ml, 95% inhibition of growth
Procedure, shortened: as §1

[3] = test system: Escherichia coli expressing NDM-1 (CLB30005, CLB30016); type: cell-based; conditions: NDM-1 strain, with imipenem 1 μg/ml, 95% inhibition of growth
Procedure, shortened: as §1

[4] = test system: Pseudomonas aeruginosa efflux− (MB9799), IMP-1; type: cell-based; conditions: concentration restoring susceptibility to imipenem at 2 μg/mL in the presence of a class A, C, D serine β-lactamase inhibitor closely related to relebactam
Procedure, shortened: (§2)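 Microbroth MIC tests in PAO1-background strains with fixed imipenem and/or ceftazidime, usually at the CLSI breakpoint, plus fixed class A/C β-lactamase inhibitor against AmpC. MBL inhibitor titrated; concentration restoring susceptibility recorded and compared as fold difference between efflux+ MB9798 and efflux− MB9799.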

[5] = test system: Pseudomonas aeruginosa MB9798 vs MB9799; conditions: ratio MITC95 PA_9798/MITC95 PA_9799
Procedure, shortened: as §2

[6] = test system: Pseudomonas aeruginosa efflux+ (MB9798), IMP-1; type: cell-based; conditions: concentration restoring susceptibility to imipenem at 2 μg/mL in the presence of a class A, C, D serine β-lactamase inhibitor closely related to relebactam
Procedure, shortened: as §2

NDM-1 = NDM-1 (Klebsiella pneumoniae, UniProt C7C422); assay: biochemical; type: biochemical; conditions: fluorescence assay, CCF2-FA substrate, 1 pM enzyme, 2 hours at 25° C.; read-out: NDM-1 IC50
Procedure, shortened: (§3)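 Fluorescence assay, CCF2-FA substrate (cephalosporin core linking 7-hydroxycoumarin to fluorescein); inhibitor + MBL + substrate, 2 h, 25° C. IC50 by 4-parameter fit, semi-log plot.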

IMP-1 = IMP-1 (Serratia marcescens, UniProt P52699); assay: biochemical; type: biochemical; conditions: fluorescence assay, CCF2-FA substrate, 2 pM enzyme, 2 hours at 25° C.; read-out: IMP-1 IC50
Procedure, shortened: as §3

VIM-1 = VIM-1 (Pseudomonas aeruginosa (strain ATCC 15692 / DSM 22644 / CIP 104116 / JCM 14847 / LMG 12228 / 1C / PRS 101 / PAO1), UniProt A0A0F7KYQ8); assay: biochemical; conditions: CCF2-FA substrate, 30 pM enzyme, 2 hours at 25° C.
Procedure, shortened: as §3

[7] = fluorescence assay, read-out: VIM-1 IC50

Sequence of IMP-1 (P52699 whole entry, looked up, species assumed): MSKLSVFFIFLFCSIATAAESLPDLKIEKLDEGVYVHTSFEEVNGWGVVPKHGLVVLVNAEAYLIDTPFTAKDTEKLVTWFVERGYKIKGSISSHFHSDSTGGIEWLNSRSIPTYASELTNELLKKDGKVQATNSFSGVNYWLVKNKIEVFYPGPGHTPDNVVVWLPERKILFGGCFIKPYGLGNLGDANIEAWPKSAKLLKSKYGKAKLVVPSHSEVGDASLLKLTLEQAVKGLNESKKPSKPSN
Sequence of NDM-1 (C7C422 whole entry, looked up, species assumed): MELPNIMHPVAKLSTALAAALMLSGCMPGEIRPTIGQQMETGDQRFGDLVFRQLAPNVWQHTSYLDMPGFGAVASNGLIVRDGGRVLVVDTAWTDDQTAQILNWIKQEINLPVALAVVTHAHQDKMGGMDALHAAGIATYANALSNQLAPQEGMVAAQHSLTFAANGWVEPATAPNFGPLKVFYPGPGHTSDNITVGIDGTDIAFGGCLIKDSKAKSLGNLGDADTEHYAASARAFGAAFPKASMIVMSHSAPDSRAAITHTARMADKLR

N[C@H]1CNC[C@H]1NS(=O)(=O)c1ccc(-c2cnc3cc[nH]c3c2)c(-c2nn[nH]n2)c1S(N)(=O)=O [Example 320]
Serratia marcescens MITC95 [1]: 0.7813 µM | Klebsiella pneumoniae MITC95 [2]: 3.125 µM | Escherichia coli MITC95 [3]: 0.7813 µM | P. aeruginosa expressing IMP-1, efflux − (MB9799) MITC95 [4]: 0.7813 µM | Efflux ratio [5]: 2.00 | P. aeruginosa expressing IMP-1, efflux + (MB9798) MITC95 [6]: 1.563 µM | IC50 (NDM-1): 0.0902 nM | IC50 (IMP-1): 1.21 nM | IC50 (VIM-1; VIM-1 IC50, fluorescence assay): 0.296 nM

Nc1ncc(-c2ccc(S(=O)(=O)N[C@@H]3CNC[C@@H]3N)c(S(N)(=O)=O)c2-c2nn[nH]n2)s1 [Example 321, N^1-((3R,4S)-4-aminopyrrolidin-3-yl)-4-(2-aminothiazol-5-yl)-3-(2H -tetrazol-5-yl)benzene-1,2-disulfonamide]
Serratia marcescens MITC95 [1]: 1.563 µM | Klebsiella pneumoniae MITC95 [2]: 3.125 µM | Escherichia coli MITC95 [3]: 0.7813 µM | P. aeruginosa expressing IMP-1, efflux − (MB9799) MITC95 [4]: 0.7813 µM | Efflux ratio [5]: 2.00 | P. aeruginosa expressing IMP-1, efflux + (MB9798) MITC95 [6]: 1.563 µM | IC50 (NDM-1): 0.376 nM | IC50 (IMP-1): 1.25 nM | IC50 (VIM-1; VIM-1 IC50, fluorescence assay): 0.958 nM

N[C@H](CO)c1nc2c(-c3ccc(S(=O)(=O)N[C@H]4CNC[C@H]4N)c(S(N)(=O)=O)c3-c3nn[nH]n3)cccc2[nH]1 [Example 323, 4-(2-((S)-1-amino-2-hydroxyethyl)-1H-benzo[d]imidazol-4-yl)-N1-((3S,4R)-4-aminopyrrolidin-3-yl)-3-(2H-tetrazol-5-yl)benzene-1,2-disulfonamide]
Serratia marcescens MITC95 [1]: 3.125 µM | Klebsiella pneumoniae MITC95 [2]: 3.125 µM | Escherichia coli MITC95 [3]: 1.563 µM | P. aeruginosa expressing IMP-1, efflux − (MB9799) MITC95 [4]: 1.563 µM | Efflux ratio [5]: 1.00 | P. aeruginosa expressing IMP-1, efflux + (MB9798) MITC95 [6]: 1.563 µM | IC50 (NDM-1): 0.219 nM | IC50 (IMP-1): 3.39 nM | IC50 (VIM-1; VIM-1 IC50, fluorescence assay): 0.321 nM

Nc1ccc2cccc(-c3ccc(S(=O)(=O)N[C@H]4CNC[C@H]4N)c(S(N)(=O)=O)c3-c3nn[nH]n3)c2n1 [Example 324, N1-((3S,4R)-4-aminopyrrolidin-3-yl)-4-(2-aminoquinolin-8-yl)-3-(1H-tetrazol-5-yl)benzene-1,2-disulfonamide]
Serratia marcescens MITC95 [1]: 0.7813 µM | Klebsiella pneumoniae MITC95 [2]: 1.563 µM | Escherichia coli MITC95 [3]: 1.563 µM | P. aeruginosa expressing IMP-1, efflux − (MB9799) MITC95 [4]: 0.7813 µM | Efflux ratio [5]: 1.00 | P. aeruginosa expressing IMP-1, efflux + (MB9798) MITC95 [6]: 0.7813 µM | IC50 (NDM-1): 0.0387 nM | IC50 (IMP-1): 0.213 nM | IC50 (VIM-1; [7]): 0.13 nM

Nc1ncc(-c2ccc(S(=O)(=O)N[C@H]3CNC[C@H]3N)c(S(N)(=O)=O)c2-c2nn[nH]n2)s1 [Example 325, N1-((3S,4R)-4-aminopyrrolidin-3-yl)-4-(2-aminothiazol-5-yl)-3-(2H-tetrazol-5-yl)benzene-1,2-disulfonamide]
Serratia marcescens MITC95 [1]: 1.563 µM | Klebsiella pneumoniae MITC95 [2]: 3.125 µM | Escherichia coli MITC95 [3]: 0.7813 µM | P. aeruginosa expressing IMP-1, efflux − (MB9799) MITC95 [4]: 0.7813 µM | Efflux ratio [5]: 2.00 | P. aeruginosa expressing IMP-1, efflux + (MB9798) MITC95 [6]: 1.563 µM | IC50 (NDM-1): 0.724 nM | IC50 (IMP-1): 1.22 nM | IC50 (VIM-1; VIM-1 IC50, fluorescence assay): 0.896 nM

N[C@@H]1CNC[C@@H]1NS(=O)(=O)c1ccc(-c2cnc3cc[nH]c3c2)c(-c2nn[nH]n2)c1S(N)(=O)=O [Example 326, N1-((3S,4R)-4-aminopyrrolidin-3-yl)-4-(1H-pyrrolo[3,2-b]pyridin-6-yl)-3-(2H-tetrazol-5-yl)benzene-1,2-disulfonamide]
Serratia marcescens MITC95 [1]: 1.563 µM | Klebsiella pneumoniae MITC95 [2]: 1.563 µM | Escherichia coli MITC95 [3]: 0.7813 µM | P. aeruginosa expressing IMP-1, efflux − (MB9799) MITC95 [4]: 1.563 µM | Efflux ratio [5]: 1.00 | P. aeruginosa expressing IMP-1, efflux + (MB9798) MITC95 [6]: 1.563 µM | IC50 (NDM-1): 0.0502 nM | IC50 (IMP-1): 0.65 nM | IC50 (VIM-1; VIM-1 IC50, fluorescence assay): 0.115 nM

Nc1nc(-c2cccc(-c3ccc(S(=O)(=O)N[C@H]4CNC[C@H]4N)c(S(N)(=O)=O)c3-c3nn[nH]n3)c2)c[nH]1 [Example 327, 3′-(2-amino-1H-imidazol-4-yl)-N4-((3S,4R)-4-aminopyrrolidin-3-yl)-2-(2H-tetrazol-5-yl)-[1,1′-biphenyl]-3,4-disulfonamide]
Serratia marcescens MITC95 [1]: 3.125 µM | Klebsiella pneumoniae MITC95 [2]: 1.563 µM | Escherichia coli MITC95 [3]: 3.125 µM | P. aeruginosa expressing IMP-1, efflux − (MB9799) MITC95 [4]: 0.7813 µM | Efflux ratio [5]: 2.00 | P. aeruginosa expressing IMP-1, efflux + (MB9798) MITC95 [6]: 1.563 µM | IC50 (NDM-1): 0.259 nM | IC50 (IMP-1): 1.41 nM | IC50 (VIM-1; VIM-1 IC50, fluorescence assay): 0.649 nM

N[C@@H]1CNC[C@@H]1NS(=O)(=O)c1ccc(-c2cccn3ccnc23)c(-c2nn[nH]n2)c1S(N)(=O)=O [Example 328, N1-((3S,4R)-4-aminopyrrolidin-3-yl)-4-(imidazo[1,2-a]pyridin-8-yl)-3-(2H-tetrazol-5-yl)benzene-1,2-disulfonamide]
Serratia marcescens MITC95 [1]: 1.563 µM | Klebsiella pneumoniae MITC95 [2]: 3.125 µM | Escherichia coli MITC95 [3]: 0.7813 µM | P. aeruginosa expressing IMP-1, efflux − (MB9799) MITC95 [4]: 1.563 µM | Efflux ratio [5]: 1.00 | P. aeruginosa expressing IMP-1, efflux + (MB9798) MITC95 [6]: 1.563 µM | IC50 (NDM-1): 0.14 nM | IC50 (IMP-1): 0.34 nM | IC50 (VIM-1; VIM-1 IC50, fluorescence assay): 0.165 nM

Cc1ccc(-c2ccc(S(=O)(=O)NCCN)c(S(N)(=O)=O)c2-c2nn[nH]n2)c2nc(N)[nH]c12 [Example 329, 4-(2-Amino-7-methyl-1H-benzo[d]imidazol-4-yl)-N1-(2-aminoethyl)-3-(2H-tetrazol-5-yl)benzene-1,2-disulfonamide]
Serratia marcescens MITC95 [1]: 1.563 µM | Klebsiella pneumoniae MITC95 [2]: 1.563 µM | Escherichia coli MITC95 [3]: 1.563 µM | P. aeruginosa expressing IMP-1, efflux − (MB9799) MITC95 [4]: 0.7813 µM | Efflux ratio [5]: 2.00 | P. aeruginosa expressing IMP-1, efflux + (MB9798) MITC95 [6]: 1.563 µM | IC50 (NDM-1): 0.0153 nM | IC50 (IMP-1): 0.128 nM | IC50 (VIM-1; [7]): 0.043 nM

NCCNS(=O)(=O)c1ccc(-c2cccc3[nH]c([C@H](N)CO)nc23)c(-c2nn[nH]n2)c1S(N)(=O)=O [Example 330, (S)-4-(2-(1-amino-2-hydroxyethyl)-1H-benzo[d]imidazol-4-yl)-N1-(2-aminoethyl)-3-(2H-tetrazol-5-yl)benzene-1,2-disulfonamide]
Serratia marcescens MITC95 [1]: 1.563 µM | Klebsiella pneumoniae MITC95 [2]: 3.125 µM | Escherichia coli MITC95 [3]: 3.125 µM | P. aeruginosa expressing IMP-1, efflux − (MB9799) MITC95 [4]: 1.563 µM | Efflux ratio [5]: 1.00 | P. aeruginosa expressing IMP-1, efflux + (MB9798) MITC95 [6]: 1.563 µM | IC50 (NDM-1): 0.294 nM | IC50 (IMP-1): 2.76 nM | IC50 (VIM-1; VIM-1 IC50, fluorescence assay): 0.308 nM

NCCNS(=O)(=O)c1ccc(-c2cccc3[nH]c([C@@H](N)CO)nc23)c(-c2nn[nH]n2)c1S(N)(=O)=O [Example 331, (R)-4-(2-(1-amino-2-hydroxyethyl)-1H-benzo[d]imidazol-4-yl)-N1-(2-aminoethyl)-3-(2H-tetrazol-5-yl)benzene-1,2-disulfonamide]
Serratia marcescens MITC95 [1]: 3.125 µM | Klebsiella pneumoniae MITC95 [2]: 3.125 µM | Escherichia coli MITC95 [3]: 1.563 µM | P. aeruginosa expressing IMP-1, efflux − (MB9799) MITC95 [4]: 1.563 µM | Efflux ratio [5]: 1.00 | P. aeruginosa expressing IMP-1, efflux + (MB9798) MITC95 [6]: 1.563 µM | IC50 (NDM-1): 0.228 nM | IC50 (IMP-1): 2.28 nM | IC50 (VIM-1; VIM-1 IC50, fluorescence assay): 0.18 nM

NCCNS(=O)(=O)c1ccc(-c2cccc(C(=O)NC[C@@H](N)CO)c2N)c(-c2nn[nH]n2)c1S(N)(=O)=O [Example 332]
Serratia marcescens MITC95 [1]: 1.563 µM | Klebsiella pneumoniae MITC95 [2]: 3.125 µM | Escherichia coli MITC95 [3]: 1.563 µM | P. aeruginosa expressing IMP-1, efflux − (MB9799) MITC95 [4]: 1.563 µM | Efflux ratio [5]: 1.00 | P. aeruginosa expressing IMP-1, efflux + (MB9798) MITC95 [6]: 1.563 µM | IC50 (NDM-1): 0.661 nM | IC50 (IMP-1): 3 nM | IC50 (VIM-1; [7]): 0.23 nM

NCCNS(=O)(=O)c1ccc(-c2cccc(C(=O)NC[C@H](N)CO)c2N)c(-c2nn[nH]n2)c1S(N)(=O)=O [Example 333, (S)-2-amino-N-(2-amino-3-hydroxypropyl)-4′-(N-(2-aminoethyl)sulfamoyl)-3′-sulfamoyl-2′-(2H-tetrazol-5-yl)-[1,1′-biphenyl]-3-carboxamide]
Serratia marcescens MITC95 [1]: 1.563 µM | Klebsiella pneumoniae MITC95 [2]: 3.125 µM | Escherichia coli MITC95 [3]: 1.563 µM | P. aeruginosa expressing IMP-1, efflux − (MB9799) MITC95 [4]: 1.563 µM | Efflux ratio [5]: 1.00 | P. aeruginosa expressing IMP-1, efflux + (MB9798) MITC95 [6]: 1.563 µM | IC50 (NDM-1): 1.01 nM | IC50 (IMP-1): 3.21 nM | IC50 (VIM-1; [7]): 0.472 nM

From patent US10221163B2 (priority 2015, dated 2019)
